# Experimental data from patent US20260130933A1, “PHARMACEUTICAL COMPOSITION FOR PREVENTION OR TREATMENT OF NEPHROPATHY AND/OR DIABETES MELLITUS, COMPRISING ENAVOGLIFLOZIN” (DAEWOONG PHARMACEUTICAL CO., LTD., priority 2022, published 2026).
# Experiment: Example 2: phase 3 trial, enavogliflozin 0.3 mg vs dapagliflozin 10 mg once a day for 24 weeks added to metformin in patients with type 2 diabetes (same efficacy, exploratory and safety endpoints)
# Type: in vivo, human
# Details: for fasting Total cholesterol, Mean (SD) / fasting Total cholesterol, Median / Change from baseline in Total cholesterol, ANCOVA LS mean (SE) / Change from baseline in Total cholesterol, Mean (SD) / Change from baseline in total cholesterol, Median: modified per-protocol set 1; for fasting Total cholesterol, Mean (SD) / fasting Total cholesterol, Median / Change from baseline in FPG, ANCOVA LS mean (SE) / Change from baseline in FPG, Mean (SD) / Change from baseline in FPG, Median / Change from baseline in HbA1c, ANCOVA LS mean (SE) / Change from baseline in HbA1c, Mean (SD) / Change from baseline in HbA1c, Median / Change from baseline in body weight, ANCOVA LS mean (SE) / Change from baseline in body weight, Mean (SD) / Change from baseline in body weight, Median / Change from baseline in fasting c-peptide, ANCOVA LS mean (SE) / Change from baseline in fasting c-peptide, Mean (SD) / Change from baseline in fasting c-peptide, Median / FPG, Mean (SD) / FPG, Median / HbA1c, Mean (SD) / HbA1c, Median / Subjects achieving HbA1c target of <6.5%, (%) / Subjects achieving therapeutic glycemic response, (%) / body weight, Mean (SD) / body weight, Median / fasting c-peptide, Mean (SD) / fasting c-peptide, Median / Change from baseline in Total cholesterol, ANCOVA LS mean (SE) / Change from baseline in Total cholesterol, Mean (SD) / Change from baseline in total cholesterol, Median: enavogliflozin 0.3 mg, dapagliflozin 10 mg; for Change from baseline in FPG, ANCOVA LS mean (SE) / Change from baseline in FPG, Mean (SD) / Change from baseline in FPG, Median / Change from baseline in HbA1c, ANCOVA LS mean (SE) / Change from baseline in HbA1c, Mean (SD) / Change from baseline in HbA1c, Median / Change from baseline in body weight, ANCOVA LS mean (SE) / Change from baseline in body weight, Mean (SD) / Change from baseline in body weight, Median / Change from baseline in fasting c-peptide, ANCOVA LS mean (SE) / Change from baseline in fasting c-peptide, Mean (SD) / Change from baseline in fasting c-peptide, Median / FPG, Mean (SD) / FPG, Median / HbA1c, Mean (SD) / HbA1c, Median / Subjects achieving HbA1c target of <6.5%, (%) / Subjects achieving therapeutic glycemic response, (%) / body weight, Mean (SD) / body weight, Median / fasting c-peptide, Mean (SD) / fasting c-peptide, Median: per-protocol set
# Procedure: Subjects who met the inclusion/exclusion criteria were administered a placebo of the clinical trial drug under single-blind (subject blinding) conditions during a 2-week run-in period while continuing to receive metformin. […] The randomized subjects were administered two tablets of the clinical trial drug for each administration group once a day, and then visited the institution at weeks 6, 12, 18, and 24 during the 24-week administration period to conduct efficacy and safety evaluations.
# • 1. Change in HbA1c at week 24 after administration of clinical trial drug compared to Visit 2 (randomization)
# • 1. Change in HbA1c at each time point of weeks 6, 12, and 18 after administration of clinical trial drug compared to Visit 2 (randomization) • 2. Change in FPG at each time point of weeks 6, 12, 18, and 24 after administration of clinical trial drug compared to Visit 2 (randomization) • 3. Proportion of subjects achieving HbA1c<7% at each time point of weeks 6, 12, 18, and 24 after administration of clinical trial drug • 4. Proportion of subjects achieving HbA1c<6.5% at each time point of weeks 6, 12, 18, and 24 after administration of clinical trial drug • 5. Proportion of subjects achieving therapeutic response (HbA1c change (HbA1c at Visit 2-HbA1c at each evaluation time point)>0.5% or HbA1c<7% at each evaluation time point compared to Visit 2 (randomization)) at each time point of weeks 6, 12, 18 and 24 after administration of clinical trial drug
# • 1. Change in fasting c-peptide at each time point of weeks 6, 12, 18, and 24 after administration of clinical trial drug compared to Visit 2 (randomization) • 2. Change in body weight at each time point of weeks 6, 12, 18, and 24 after administration of clinical trial drug compared to Visit 2 (randomization) • 3. Change in fasting lipid concentration (total cholesterol, LDL-C, HDL-C, and triglycerides) at each time point of weeks 6, 12, 18, and 24 after administration of clinical trial drug compared to Visit 2 (randomization) • 4. Changes in systolic or diastolic blood pressure at each time point of weeks 6, 12, 18, and 24 after administration of clinical trial drug compared to Visit 2 (randomization) • 5. Changes in β-cell function and insulin resistance measured by HOMA-β and HOMA-IR at each time point of weeks 6, 12, 18, and 24 after administration of clinical trial drug compared to Visit 2 (randomization) • 6. Changes in renal function-related indicators (UACR, UGCR) measured by UACR at each time point of weeks 6, 12, 18, and 24 after administration of clinical trial drug compared to Visit 2 (randomization) • 7. Changes in obesity-related indicators (adiponectin, leptin) at each time point of weeks 6, 12, 18, and 24 after administration of clinical trial drug compared to Visit 2 (randomization)
# [1] = week 24, listed as dapagliflozin
smiles,measurement,setting,value
"CCOc1ccc(Cc2cc([C@@H]3O[C@H](CO)[C@@H](O)[C@H](O)[C@H]3O)ccc2Cl)cc1 [Dapagliflozin, reference compound]","fasting Total cholesterol, Mean (SD)",week 12,143.19(28.59) mg/dL
same,"fasting Total cholesterol, Median",week 12,138.00 mg/dL
same,"Change from baseline in FPG, ANCOVA LS mean (SE)",week 12,-30.11 mg/dL
same,"Change from baseline in FPG, Mean (SD)",week 12,-31.89 mg/dL
same,"Change from baseline in FPG, Median",week 12,-23.50 mg/dL
same,"Change from baseline in HbA1c, ANCOVA LS mean (SE)",week 12,−0.79 % p
same,"Change from baseline in HbA1c, Mean (SD)",week 12,−0.74 % p
same,"Change from baseline in HbA1c, Median",week 12,−0.66 % p
same,"Change from baseline in body weight, ANCOVA LS mean (SE)",week 12,−2.63(0.23) kg
same,"Change from baseline in body weight, Mean (SD)",week 12,−2.61(1.66) kg
same,"Change from baseline in body weight, Median",week 12,-2.55 kg
same,"Change from baseline in fasting c-peptide, ANCOVA LS mean (SE)",week 12,−0.09(0.02) ng/mL
same,"Change from baseline in fasting c-peptide, Mean (SD)",week 12,−0.08(0.18) ng/mL
same,"Change from baseline in fasting c-peptide, Median",week 12,-0.10 ng/mL
same,"FPG, Mean (SD)",week 12,117.78 mg/dL
same,"FPG, Median",week 12,116.50 mg/dL
same,"HbA1c, Mean (SD)",week 12,6.94%
same,"HbA1c, Median",week 12,6.83%
same,"Subjects achieving HbA1c target of <6.5%, (%)",week 12,(26.14) %
same,"Subjects achieving therapeutic glycemic response, (%)",week 12,(79.55) %
same,"body weight, Mean (SD)",week 12,68.19(11.65) kg
same,"body weight, Median",week 12,66.90 kg
same,"fasting c-peptide, Mean (SD)",week 12,0.66(0.23) ng/mL
same,"fasting c-peptide, Median",week 12,0.65 ng/mL
same,"FPG change from baseline, LS mean (SE)",week 18,−31.13(1.63) mg/dL
same,"HOMA-IR change from baseline, LS mean (SE)",week 18,−1.47(0.12)
same,"HOMA-β change from baseline, LS mean (SE)",week 18,13.49(3.08)
same,"HbA1c change from baseline, LS mean (SE)",week 18,−0.70(0.06) % p
same,"LDL-C change from baseline, LS mean (SE)",week 18,2.58(1.89) mg/dL
same,Subjects achieving HbA1c target of <7%,week 18,(57.47) %
same,Subjects achieving HbA1c<6.5%,week 18,25.29%
same,Subjects achieving therapeutic response (HbA1c change >0.5% or HbA1c<7%),week 18,73.56%
same,"UACR change from baseline, LS mean (SE)",week 18,−12.95(5.11) g/kg
same,"diastolic blood pressure change from baseline, LS mean (SE)",week 18,−4.10(0.81) mmHg
same,"fasting c-peptide change from baseline, LS mean (SE)",week 18,−0.06(0.19) ng/ml
same,"leptin change from baseline, LS mean (SE)",week 18,−1.23(0.53) ng/mL
same,Subjects achieving HbA1c target of <7%,"week 18, listed as dapagliflozin",57.47%
same,"Change from baseline in Total cholesterol, ANCOVA LS mean (SE)",week 18,9.57(2.20) mg/dL
same,"Change from baseline in Total cholesterol, Mean (SD)",week 18,10.18(22.74) mg/dL
same,"Change from baseline in total cholesterol, Median",week 18,9.00 mg/dL
same,"fasting Total cholesterol, Mean (SD)",week 18,148.48(30.10) mg/dL
same,"fasting Total cholesterol, Median",week 18,151.50 mg/dL
same,"Change from baseline in FPG, ANCOVA LS mean (SE)",week 18,-31.13 mg/dL
same,"Change from baseline in FPG, Mean (SD)",week 18,-32.55 mg/dL
same,"Change from baseline in FPG, Median",week 18,-26.00 mg/dL
same,"Change from baseline in HbA1c, ANCOVA LS mean (SE)",week 18,−0.70 % p
same,"Change from baseline in HbA1c, Mean (SD)",week 18,−0.66 % p
same,"Change from baseline in HbA1c, Median",week 18,−0.61 % p
same,"Change from baseline in body weight, ANCOVA LS mean (SE)",week 18,−3.16(0.26) kg
same,"Change from baseline in body weight, Mean (SD)",week 18,−3.19(1.93) kg
same,"Change from baseline in body weight, Median",week 18,-3.00 kg
same,"Change from baseline in fasting c-peptide, ANCOVA LS mean (SE)",week 18,−0.06(0.02) ng/mL
same,"Change from baseline in fasting c-peptide, Mean (SD)",week 18,−0.06(0.19) ng/mL
same,"Change from baseline in fasting c-peptide, Median",week 18,-0.03 ng/mL
same,"FPG, Mean (SD)",week 18,116.53 mg/dL
same,"FPG, Median",week 18,115.00 mg/dL
same,"HbA1c, Mean (SD)",week 18,7.02%
same,"HbA1c, Median",week 18,6.90%
same,"Subjects achieving HbA1c target of <6.5%, (%)",week 18,(25.29) %
same,"Subjects achieving therapeutic glycemic response, (%)",week 18,(73.56) %
same,"body weight, Mean (SD)",week 18,67.54(11.96) kg
same,"body weight, Median",week 18,67.00 kg
same,"fasting c-peptide, Mean (SD)",week 18,0.69(0.24) ng/mL
same,"fasting c-peptide, Median",week 18,0.66 ng/mL
same,"FPG change from baseline, LS mean (SE)",week 24,−29.14(1.82) mg/dL
same,"HOMA-IR change from baseline, LS mean (SE)",week 24,−1.31(0.14)
same,"HOMA-β change from baseline, LS mean (SE)",week 24,11.93(3.25)
same,"HbA1c change from baseline, LS mean (SE)",week 24,−0.75 % p
same,"HbA1c change from baseline, Mean (SD)",week 24,−0.71 % p
same,"HbA1c, Mean",week 24,6.97%
same,"LDL-C change from baseline, LS mean (SE)",week 24,0.93(1.98) mg/dL
same,Subjects achieving HbA1c target of <7%,week 24,(62.22) %
same,Subjects achieving HbA1c<6.5%,week 24,27.78%
same,Subjects achieving therapeutic response (HbA1c change >0.5% or HbA1c<7%),week 24,75.56%
same,"UACR change from baseline, LS mean (SE)",week 24,−17.37(3.48) g/kg
same,"UGCR change from baseline, LS mean (SE)",week 24,44.94(2.18) mg/mg
same,"diastolic blood pressure change from baseline, LS mean (SE)",week 24,−4.26(0.67) mmHg
same,"fasting c-peptide change from baseline, LS mean (SE)",week 24,−0.04(0.26) ng/ml
same,"leptin change from baseline, LS mean (SE)",week 24,−1.28(0.53) ng/mL
same,"HbA1c change from baseline, LS mean (SE)",[1],−0.75(0.06) % p
same,"HbA1c change from baseline, Mean (SD)",[1],−0.71(0.76) % p
same,Subjects achieving HbA1c target of <7%,[1],62.22%
same,"Change from baseline in Total cholesterol, ANCOVA LS mean (SE)",week 24,6.74(2.30) mg/dL
same,"Change from baseline in Total cholesterol, Mean (SD)",week 24,9.15(22.59) mg/dL
same,"Change from baseline in total cholesterol, Median",week 24,10.00 mg/dL
same,"fasting Total cholesterol, Mean (SD)",week 24,147.02(27.55) mg/dL
same,"fasting Total cholesterol, Median",week 24,145.00 mg/dL
same,"Change from baseline in FPG, ANCOVA LS mean (SE)",week 24,-29.14 mg/dL
same,"Change from baseline in FPG, Mean (SD)",week 24,-31.42 mg/dL
same,"Change from baseline in FPG, Median",week 24,-24.00 mg/dL
same,"Change from baseline in body weight, ANCOVA LS mean (SE)",week 24,−3.58(0.34) kg
same,"Change from baseline in body weight, Mean (SD)",week 24,−3.60(2.14) kg
same,"Change from baseline in body weight, Median",week 24,-3.40 kg
same,"Change from baseline in fasting c-peptide, ANCOVA LS mean (SE)",week 24,−0.04(0.02) ng/mL
same,"Change from baseline in fasting c-peptide, Mean (SD)",week 24,−0.04(0.26) ng/mL
same,"Change from baseline in fasting c-peptide, Median",week 24,-0.07 ng/mL
same,"FPG, Mean (SD)",week 24,117.91 mg/dL
same,"FPG, Median",week 24,116.50 mg/dL
same,"Subjects achieving HbA1c target of <6.5%, (%)",week 24,(27.78) %
same,"Subjects achieving therapeutic glycemic response, (%)",week 24,(75.56) %
same,"body weight, Mean (SD)",week 24,66.92(11.89) kg
same,"body weight, Median",week 24,66.05 kg
same,"fasting c-peptide, Mean (SD)",week 24,0.70(0.30) ng/mL
same,"fasting c-peptide, Median",week 24,0.66 ng/mL
